Measured values from patent US20200079819A1, “Use of a Vaccine Targeting a Cryptic Tert Epitope, for Treating Lung Cancer in a HLA-A*0201-Positive Never-Smoker or Light-Former Smoker Patient” (Vaxon Biotech, priority 2017, published 2020).
No end group written: not given here.

Test system: HLA-A*0201 positive patients with NSCLC expressing TERT
Assay: Vx-001-201 randomized double blind phase IIb clinical trial (OS, TTF, 12 months survival)
Type: in vivo, human
Conditions: for OS (months) / 12 months OS / 12 months OS (%) / Median TTF (months) / Median survival (months): Vx-001 arm; for HR (OS) / HR (TTF): Vx-001 vs placebo
Source text: The Vx-001-201 study is a randomized, double blind multicenter study done in 70 centers in France, Germany, Spain, Italy, Greece, Poland, Romania and Czech Republic. Key eligibility criteria were a) non small cell lung cancer (NSCLC), b) stage IV or recurrent stage I-III, c) disease control after platinum based first line chemotherapy according to RECIST 1.1 criteria, d) HLA-A*0201 positivity, e) tumors expressing TElomerase Reverse Transcriptase (TERT), f) ECOG 0 or 1 g) absence of brain metastasis.
a) Principal endpoint: overall survival (OS) measured from randomization
b) Secondary endpoints: • Time to Treatment Failure (TTF) measured from randomization • OS at 12 months
Patients who fulfilled all inclusion criteria were randomized within 4 weeks after the end of first line chemotherapy.
The vaccination protocol consisted in six vaccinations at three weeks interval. The optimized Vx-001/TERT572Y was used in the first two vaccinations and the native Vx-001/TERT572 in the following four vaccinations. Patients who continued controlling their disease after the sixth vaccination received boost vaccination with the Vx-001/TERT572 every three months. Vaccination was stopped at disease progression (FIG. 1).
The primary and secondary endpoints were analysed in the Full Analysis Set composed of all patients who fulfilled the […] five main criteria a) NSCLC, b) stage IV or recurrent stage I-III, and c) disease control after first line chemotherapy, d) HLA-A*0201 positivity and e) TERT expressing tumors.
We used the Kaplan-Meier method to estimate OS and TTF in each arm and a Cox proportional hazards regression model to estimate Hazard Ratio (HR) relating OS and TTF to the treatment effect.

[1] = never-smokers and light-smokers (≤25 years, stopped or not), SQ (n = 14)
[2] = never-smokers and light-smokers (≤25 years, stopped or not), Stage IV (n = 51)
[3] = never-smokers and light-smokers (≤25 years, stopped or not), natural immunity No (n = 37)
[4] = never-smokers and light-smokers (≤25 years, stopped or not), natural immunity Yes (n = 15)
[5] = never-smokers and light-smokers (≤25 years, stopped or not), response to treatment OS (n = 28)
[6] = never-smokers and light-smokers (≤25 years, stopped or not), response to treatment SD (n = 32)
[7] = never-smokers or former light-smokers (≤25 years), <65 years (n = 24)
[8] = never-smokers or former light-smokers (≤25 years), >65 years (n = 31)
[9] = never-smokers or former light-smokers (≤25 years), CARBO (n = 37)
[10] = never-smokers or former light-smokers (≤25 years), CDDP (n = 18)
[11] = never-smokers or former light-smokers (≤25 years), Female (n = 23)
[12] = never-smokers or former light-smokers (≤25 years), MH + NSQ (n = 42)
[13] = never-smokers or former light-smokers (≤25 years), Male (n = 32)
[14] = never-smokers or former light-smokers (≤25 years), SQ (n = 13)
[15] = never-smokers or former light-smokers (≤25 years), natural immunity No (n = 33)
[16] = never-smokers or former light-smokers (≤25 years), natural immunity Yes (n = 14)
[17] = never-smokers or former light-smokers (≤25 years), response to chemotherapy OR (n = 26)
[18] = never-smokers or former light-smokers (≤25 years), response to chemotherapy SD (n = 29)
[19] = never-smokers or former light-smokers (≤25 years), stable disease SD after first-line chemotherapy (n = 29)

Vx-001: vaccine composed of two nine-amino-acid peptides, TERT572 (SEQ ID No: 1) and TERT572Y (SEQ ID No: 2), administered separately with adjuvant Montanide ISA51 VG (chain 1 RLFFYRKSV; chain 2 YLFFYRKSV; not fully specified)
OS (months) [1]: 14.1 months | HR (OS) [1]: 0.81 | 12 months OS [2]: 69.2% | OS (months) [2]: 16.2 months | HR (OS) [2]: 0.44 | 12 months OS [3]: 83.0% | OS (months) [3]: 20.7 months | HR (OS) [3]: 0.27 | 12 months OS [4]: 66.0% | OS (months) [4]: 15.3 months | HR (OS) [4]: 0.87 | 12 months OS [5]: 63.6% | OS (months) [5]: 15.3 months | HR (OS) [5]: 0.91 | 12 months OS [6]: 75.0% | OS (months) [6]: 24.7 months | HR (OS) [6]: 0.34 | 12 months OS (%) [7]: 77% | Median TTF (months) [7]: 2.9 months | Median survival (months) [7]: 20.2 months | HR (OS) [7]: 0.46 | HR (TTF) [7]: 1.07 | 12 months OS (%) [8]: 69.2% | Median TTF (months) [8]: 4.6 months | Median survival (months) [8]: 15.3 months | HR (OS) [8]: 0.64 | HR (TTF) [8]: 0.71 | 12 months OS (%) [9]: 64.7% | Median TTF (months) [9]: 2.9 months | Median survival (months) [9]: 15.3 months | HR (OS) [9]: 0.63 | HR (TTF) [9]: 0.90 | 12 months OS (%) [10]: 88.8% | Median TTF (months) [10]: 5.6 months | Median survival (months) [10]: 24.7 months | HR (OS) [10]: 0.50 | HR (TTF) [10]: 0.87 | 12 months OS (%) [11]: 66.6% | Median TTF (months) [11]: 4.2 months | Median survival (months) [11]: 13.3 months | HR (OS) [11]: 0.89 | HR (TTF) [11]: 0.98 | 12 months OS (%) [12]: 73.7% | Median TTF (months) [12]: 4.2 months | Median survival (months) [12]: 16.2 months | HR (OS) [12]: 0.53 | HR (TTF) [12]: 0.89 | 12 months OS (%) [13]: 78.6% | Median TTF (months) [13]: 2.9 months | Median survival (months) [13]: 24.7 months | HR (TTF) [13]: 0.82 | 12 months OS (%) [14]: 71.4% | Median TTF (months) [14]: 2.9 months | Median survival (months) [14]: 14.1 months | HR (OS) [14]: 0.89 | HR (TTF) [14]: 0.81 | 12 months OS (%) [15]: 82.3% | Median TTF (months) [15]: 5.6 months | Median survival (months) [15]: 20.7 months | HR (TTF) [15]: 0.43 | 12 months OS (%) [16]: 66.6% | Median TTF (months) [16]: 2.4 months | Median survival (months) [16]: 15.3 months | HR (OS) [16]: 0.90 | HR (TTF) [16]: 1.86 | 12 months OS (%) [17]: 72.7% | Median TTF (months) [17]: 2.8 months | Median survival (months) [17]: 15.3 months | HR (OS) [17]: 0.96 | HR (TTF) [17]: 1.33 | Median TTF (months) [18]: 3.6 months | HR (TTF) [18]: 0.58 | 12 months OS (%) [19]: 73.3% | Median survival (months) [19]: 24.7 months | Effect on OS (in words) (never/light-smokers (≤25 years, stopped or not), Table 7 population): significantly prolonged OS
